From patent US20090047269A1, “METABOLOMIC CANCER TARGETS” (The Regents of the University of Michigan, priority 2007, published 2009)

Legend:
Type in all cases: cell-based
EGFR = assay: Immunoblot analysis of EGFR phosphorylation and total EGFR; conditions: for total EGFR levels upon treatment: prostate epithelial cells
[1] = tested on: immortalized benign RWPE prostate cells; assay: Modified Boyden chamber matrigel invasion assay, RWPE cells; conditions: for increased invasion upon sarcosine addition compared to control / induction of invasion upon exogenous addition: benign prostate epithelial cells; for increased invasion upon sarcosine addition compared to control: alanine as control
Procedure: To investigate the biological role of sarcosine elevation in prostate cancer, prostate cancer cell lines VCaP, DU145, 22RV1 and LNCaP and their benign epithelial counterparts, primary benign prostate epithelial cells PrEC and immortalized benign RWPE prostate cells were used.
To determine if sarcosine plays a role in this process, it was added directly to non-invasive benign prostate epithelial cells. Alanine (an isomer of sarcosine) was used as a control for these experiments. […] The present invention is not limited to a particular mechanism. Indeed, an understanding of the mechanism is not necessary to practice the present invention.
To understand the role of sarcosine in prostate cancer progression, levels of the metabolite was measured in a panel of prostate-derived cell lines. […] The knock down studies were carried out using specific siRNA and the extent of target inhibition was assessed using Q-PCR. The in vitro Boyden chamber assay was used to qualify the modulation in the invasiveness of the knock down cells.

src = assay: Immunoblot analysis of src phosphorylation; conditions: prostate epithelial cells (PrEC), compared to alanine-treated controls
From the text: (§1) Also total EGFR levels were elevated upon treatment with alanine or sarcosine. […] This observation was further strengthened using both antibody-mediated inhibition of EGFRactivity and siRNA-mediated knock-down of receptor levels.

p38MAPK = assay: Immunoblot analysis of p38MAPK phosphorylation; conditions: sarcosine-treated PrEC samples
From the text: as §1

[2] = RWPE cells, control non-target siRNA-transfected

| SMILES | total EGFR levels upon treatment (EGFR) | increased invasion upon sarcosine addition compared to control ([1]; 25 μM) | increased invasion upon sarcosine addition compared to control ([1]; 50 μM) | invasion upon amino acid addition, mean±SEM ([1]; RWPE cells with GNMT knockdown) | invasion upon amino acid addition, mean±SEM [1, 2] | induction of invasion upon exogenous addition [1] | EGFR phosphorylation upon treatment (EGFR; prostate epithelial cells (PrEC), compared to alanine-treated controls) | src phosphorylation upon treatment (src) | p38MAPK phosphorylation upon treatment (p38MAPK) |
| --- | --- | --- | --- | --- | --- | --- | --- | --- | --- |
| C[C@H](N)C(=O)O [alanine, reference compound] | elevated | – | – | – | – | – | – | – | – |
| CNCC(=O)O [sarcosine] | elevated | 1.64 fold | 2.57 fold | 0.64±0.07 | 0.65±0.05 | imparted an invasive phenotype | time-dependent increase | time-dependent increase | phosphorylation of p38MAPK |
| NCC(=O)O [glycine] | – | – | – | 0.20±0.03 | 0.46±0.04 | induced invasion in these cells, although to a lesser degree than sarcosine | – | – | – |
